According to patent US8530490B2, “Uracil compound or salt thereof having human deoxyuridine triphosphatase inhibitory activity” (Taiho Pharmaceutical Co., Ltd., priority 2008, dated 2013):

Target: human dUTPase (Homo sapiens (Human), UniProt P33316)
Test: Human dUTPase inhibitory effect: production of [5-3H]dUMP from [5-3H]dUTP, measured by HPLC with flow scintillation
Type: biochemical
Conditions: [5-3H]dUMP production from [5-3H]dUTP, 37° C., 15 minutes
Procedure: The inhibitory activity of the compound of the present invention against human dUTPase was determined by measuring the production of [5-^3H]deoxyuridine monophosphate (hereinafter, referred to as [5-^3H]dUMP) from [5-^3H]deoxyuridine triphosphate (hereinafter, referred to as [5-^3H]dUTP) according to a method shown below.
Specifically, 0.2 mL in total of a solution containing 0.02 mL of 1 μM dUTP (including 588 Bq/mL [5-3H]dUTP), 0.05 mL of a 0.2 M Tris buffer solution (pH 7.4), 0.05 mL of 16 mM magnesium chloride, 0.02 mL of 20 mM 2-mercaptoethanol, 0.02 mL of a 1% aqueous solution of fetal bovine serum-derived albumin, 0.02 mL of varying concentrations of test compound solutions or pure water as a control, and 0.02 mL of a solution of human dUTPase (expressed using E. coli and purified) was reacted at 37° C. for 15 minutes. Immediately after the reaction, the solution was heated at 100° C. for 1 minute to terminate the reaction, followed by centrifugation at 15000 rpm for 2 minutes. An aliquot (150 μL) of the supernatant thus obtained by centrifugation was analyzed using an Atlantis dC18 column (manufactured by Waters Corp., 4.6×250 mm) and a high-performance liquid chromatograph (manufactured by Shimadzu Corp., Prominence). Elution was performed at a flow rate of 0.8 mL/min for 30 minutes by a concentration gradient from a 4:6 mixed solution of a mobile phase A (10 mM potassium dihydrogen phosphate (pH 6.7), 10 mM tetrabutylammonium, and 0.25% methanol) and a mobile phase B (50 mM potassium dihydrogen phosphate (pH 6.7), 5.6 mM tetrabutylammonium, and 30% methanol) to the mobile phase B. The eluate was mixed with a scintillator (manufactured by PerkinElmer Co., Ltd., Ultima-Flo AP) at a 1:2 ratio, and the radioactivity of the produced [5-^3H]dUMP (RT 10.2 min) was measured using Radiomatic Flow Scintillation Analyzer (manufactured by PerkinElmer Co., Ltd., 525TR).
The inhibitory activity of the test compound was determined according to the formula shown below.

Chain of human dUTPase (P33316 94-252): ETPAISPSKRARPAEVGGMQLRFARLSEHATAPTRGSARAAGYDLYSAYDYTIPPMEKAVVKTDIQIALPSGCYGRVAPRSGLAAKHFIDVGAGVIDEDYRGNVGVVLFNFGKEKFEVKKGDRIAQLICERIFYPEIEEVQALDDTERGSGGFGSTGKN

Row | Compound | IC50 [nM]
1 | C[C@@H](NS(=O)(=O)CCCOCn1ccc(=O)[nH]c1=O)c1cccc(OC(F)(F)C(F)(F)F)c1 [Example 55, (R)-3-((2,4-dioxo-3,4-dihydropyrimidin-1(2H)-yl)methoxy)-N-(1-(3-(perfluoroethoxy)phenyl)ethyl)propane-1-sulfonamide] | 410
2 | C[C@@H](NS(=O)(=O)CCCOCn1ccc(=O)[nH]c1=O)c1cccc(OC(CF)CF)c1 [Example 56, (R)—N-(1-(3-(1,3-difluoropropan-2-yloxy)phenyl)ethyl)-3-((2,4-dioxo-3,4-dihydropyrimidin-1(2H)-yl)methoxy)propane-1-sulfonamide] | 850
3 | C#CCOc1cccc([C@@H](C)NS(=O)(=O)CCCOCn2ccc(=O)[nH]c2=O)c1 [Example 57, (R)-3-((2,4-dioxo-3,4-dihydropyrimidin-1(2H)-yl)methoxy)-N-(1-(3-(prop-2-ynyloxy)phenyl)ethyl)propane-1-sulfonamide] | 1180
4 | CC(C)COc1cccc([C@@H](C)NS(=O)(=O)CCCOCn2ccc(=O)[nH]c2=O)c1 [Example 58, (R)-3-((2,4-dioxo-3,4-dihydropyrimidin-1(2H)-yl)methoxy)-N-(1-(3-isobutoxyphenyl)ethyl)propane-1-sulfonamide] | 310
5 | CC[C@H](C)COc1cccc([C@@H](C)NS(=O)(=O)CCCOCn2ccc(=O)[nH]c2=O)c1 [Example 59, 3-((2,4-dioxo-3,4-dihydropyrimidin-1(2H)-yl)methoxy)-N—((R)-1-(3-((S)-2-methylbutoxy)phenyl)ethyl)propane-1-sulfonamide] | 720
6 | C[C@@H](NS(=O)(=O)CCCOCn1ccc(=O)[nH]c1=O)c1cccc(OCC2(C)CC2)c1 [Example 60, (R)-3-((2,4-dioxo-3,4-dihydropyrimidin-1(2H)-yl)methoxy)-N-(1-(3-((1-methylcyclopropyl)methoxy)phenyl)ethyl)propane-1-sulfonamide] | 490
7 | C[C@@H](NS(=O)(=O)CCCOCn1ccc(=O)[nH]c1=O)c1cccc(OCC(F)F)c1 [Example 61, (R)—N-(1-(3-(2,2-difluoroethoxy)phenyl)ethyl)-3-((2,4-dioxo-3,4-dihydropyrimidin-1(2H)-yl)methoxy)propane-1-sulfonamide] | 140
8 | C#C[C@H](C)Oc1cccc([C@@H](C)NS(=O)(=O)CCCOCn2ccc(=O)[nH]c2=O)c1 [Example 62, N—((R)-1-(3-((S)-but-3-yn-2-yloxy)phenyl)ethyl)-3-((2,4-dioxo-3,4-dihydropyrimidin-1(2H)-yl)methoxy)propane-1-sulfonamide] | 370
9 | C#C[C@@H](C)Oc1cccc([C@@H](C)NS(=O)(=O)CCCOCn2ccc(=O)[nH]c2=O)c1 [Example 63, N—((R)-1-(3-((R)-but-3-yn-2-yloxy)phenyl)ethyl)-3-((2,4-dioxo-3,4-dihydropyrimidin-1(2H)-yl)methoxy)propane-1-sulfonamide] | 470
10 | C[C@@H](NS(=O)(=O)CCCOCn1ccc(=O)[nH]c1=O)c1cccc(OCC2CCCC2)c1 [Example 65, (R)—N-(1-(3-(cyclopentylmethoxy)phenyl)ethyl)-3-((2,4-dioxo-3,4-dihydropyrimidin-1(2H)-yl)methoxy)propane-1-sulfonamide] | 1000
11 | CC[C@@H](C)Oc1cccc([C@@H](C)NS(=O)(=O)CCCOCn2ccc(=O)[nH]c2=O)c1 [Example 66, N—((R)-1-(3-((R)-1-methylpropoxy)phenyl)ethyl)-3-((2,4-dioxo-3,4-dihydropyrimidin-1(2H)-yl)methoxy)propane-1-sulfonamide] | 460
12 | CC[C@H](C)Oc1cccc([C@@H](C)NS(=O)(=O)CCCOCn2ccc(=O)[nH]c2=O)c1 [Example 67, N—((R)-1-(3-((s)-1-methylpropoxy)phenyl)ethyl)-3-((2,4-dioxo-3,4-dihydropyrimidin-1(2H)-yl)methoxy)propane-1-sulfonamide] | 430
13 | C[C@@H](NS(=O)(=O)CCCOCn1ccc(=O)[nH]c1=O)c1ccc(F)c(OCC(F)F)c1 [Example 68, (R)—N-(1-(3-(2,2-difluoroethoxy)-4-fluorophenyl)ethyl)-3-((2,4-dioxo-3,4-dihydropyrimidin-1(2H)-yl)methoxy)propane-1-sulfonamide] | 110
14 | C=CCOc1cccc([C@@H](C)NS(=O)(=O)CCCOCn2ccc(=O)[nH]c2=O)c1 [Example 69, (R)—N-(1-(3-(allyloxy)phenyl)ethyl)-3-((2,4-dioxo-3,4-dihydropyrimidin-1(2H)-yl)methoxy)propane-1-sulfonamide] | 740
15 | CCC[C@H](C)Oc1cccc([C@@H](C)NS(=O)(=O)CCCOCn2ccc(=O)[nH]c2=O)c1 [Example 70, 3-((2,4-dioxo-3,4-dihydropyrimidin-1(2H)-yl)methoxy)-N—((R)-1-(3-((S)-pentan-2-yloxy)phenyl)ethyl)propane-1-sulfonamide] | 760
16 | CCC[C@@H](C)Oc1cccc([C@@H](C)NS(=O)(=O)CCCOCn2ccc(=O)[nH]c2=O)c1 [Example 71, 3-((2,4-dioxo-3,4-dihydropyrimidin-1(2H)-yl)methoxy)-N—((R)-1-(3-((R)-pentan-2-yloxy)phenyl)ethyl)propane-1-sulfonamide] | 930
17 | C[C@@H](NS(=O)(=O)CCCOCn1ccc(=O)[nH]c1=O)c1cccc(OCC(F)(F)C(F)(F)F)c1 [Example 72, (R)-3-((2,4-dioxo-3,4-dihydropyrimidin-1(2H)-yl)methoxy)-N-(1-(3-(2,2,3,3,3-pentafluoropropoxy)phenyl)ethyl)propane-1-sulfonamide] | 660
18 | C[C@@H](NS(=O)(=O)CCCOCn1ccc(=O)[nH]c1=O)c1cccc(OCCC2CC2)c1 [Example 73, (R)—N-(1-(3-(2-cyclopropylethoxy)phenyl)ethyl)-3-((2,4-dioxo-3,4-dihydropyrimidin-1(2H)-yl)methoxy)propane-1-sulfonamide] | 510
19 | O=c1ccn(COCCCS(=O)(=O)NC(c2ccccc2)c2ccccc2)c(=O)[nH]1 [Example 76, N-benzhydryl-3-((2,4-dioxo-3,4-dihydropyrimidin-1(2H)-yl)methoxy)propane-1-sulfonamide] | 2100
20 | Cc1ccccc1C(NS(=O)(=O)CCCOCn1ccc(=O)[nH]c1=O)c1ccccc1 (stereo not shown) [Example 77, 3-((2,4-dioxo-3,4-dihydropyrimidin-1(2H)-yl)methoxy)-N-(phenyl(o-tolyl)methyl)propane-1-sulfonamide] | 5690
21 | O=c1ccn(COCCCS(=O)(=O)NC(c2ccc(F)cc2)c2ccc(F)cc2)c(=O)[nH]1 [Example 78, N-(bis(4-fluorophenyl)methyl)-3-((2,4-dioxo-3,4-dihydropyrimidin-1(2H)-yl)methoxy)propane-1-sulfonamide] | 2580
22 | O=c1ccn(COCCCS(=O)(=O)N2CCC[C@@H]2C(c2ccccc2)c2ccccc2)c(=O)[nH]1 [Example 79, (R)-1-((3-(2-benzhydrylpyrrolidin-1-ylsulfonyl)propoxy)methyl)pyrimidine-2,4(1H, 3H)-dione] | 1650
23 | CC(C)C[C@@H](NS(=O)(=O)CCCOCn1ccc(=O)[nH]c1=O)C(O)(c1ccccc1)c1ccccc1 [Example 80, (R)-3-((2,4-dioxo-3,4-dihydropyrimidin-1(2H)-yl)methoxy)-N-(1-hydroxy-4-methyl-1,1-diphenylpentan-2-yl)propane-1-sulfonamide] | 1300
24 | O=c1ccn(COCCCS(=O)(=O)NC2(c3ccccc3)CCCC2)c(=O)[nH]1 [Example 81, 3-((2,4-dioxo-3,4-dihydropyrimidin-1(2H)-yl)methoxy)-N-(1-phenylcyclopentyl)propane-1-sulfonamide] | 9440
25 | CC[C@@H](NS(=O)(=O)CCCOCn1ccc(=O)[nH]c1=O)c1ccccc1 [Example 83, (R)-3-((2,4-dioxo-3,4-dihydropyrimidin-1(2H)-yl)methoxy)-N-(1-phenylpropyl)propane-1-sulfonamide] | 4780
26 | C[C@@H](NS(=O)(=O)CCCOCn1ccc(=O)[nH]c1=O)c1cccc(F)c1 [Example 87, (R)-3-((2,4-dioxo-3,4-dihydropyrimidin-1(2H)-yl)methoxy)-N-(1-(3-fluorophenyl)ethyl)propane-1-sulfonamide] | 7130
27 | O=c1ccn(COCCCS(=O)(=O)NC(c2ccccc2)c2cccc(F)c2)c(=O)[nH]1 (stereo not shown) [Example 93, 3-((2,4-dioxo-3,4-dihydropyrimidin-1(2H)-yl)methoxy)-N-((3-fluorophenyl)(phenyl)methyl)propane-1-sulfonamide] | 4630
28 | O=c1ccn(Cc2ccc(S(=O)(=O)NC(c3ccccc3)c3ccccc3)cc2)c(=O)[nH]1 [Example 96, N-benzhydryl-4-((2,4-dioxo-3,4-dihydropyrimidin-1(2H)-yl)methyl)benzenesulfonamide] | 4620
